Converted amounts (≈) assume the structure as drawn. “And” between values parts separate entries of the source, which are not always exact repeats. Identical values can stand only once.
Columns and labels:
BVDV = BVDV testing in vitro; assay type: cell-based, bovine diarrhea virus
Description: DMSO had no effect, as expected.
BVDV is a bovine diarrhea virus and is a well known surrogate virus for hepatitis C which cannot be cultured in vitro.

[1] = tested on: Human Herpes Virus 8 (HHV8); assay: Kaposi's sarcoma / HHV8 DNA copy number in TPA-induced BCBL-1 cells; assay type: cell-based
Procedure: The DNA copy number and the toxicity value were measured and compared with Cidofovir. Kaposi's sarcoma (KS) is a cancer that is often found in people with weak immune systems, such as those taking immunosuppressants or those with AIDS. The exact nature of the disease is uncertain, but it is almost always found in association with HHV8.

HIV-1 cell line, CEMRF = assay: Long term in vitro study, CEMRF; assay type: cell-based; conditions: 7 μg/ml
Procedure: (§1) Toxicity quantification involves the XTT-based evaluation. Assays were designed to characterize the long term effects of the compounds on virus production and to characterize the longer term effects of the compounds on virus production from chronically HIV infected cells.
(§2) CEM-SS cells chronically infected with HIV isolate, for example SKI (CEM-SKI) are cultured in RPMI1640 tissue culture medium supplemented with 10% fetal bovine serum and antibiotics. […] CEM-SKI or other infected cells with no added drug are used as the control cells.
(§3) Cells are allowed to grow to a density of approximately 1×10^6 cells/ml and are then passaged at a 1:10 dilution. […] The drug concentration in the flask is then increased two-fold and the cells maintained as above.
(§4) The cell populations contain integrated copies of the HIV genome and constitutively produce HIV at relatively high levels or are latently infected and only produce virus after stimulation with phorbol esters, tumor necrosis factor or IL6(U1 and ACH2). Reductions in virus products were observed when quantifying supernatant reverse transcriptase activity.
The results with CEMRF cells was reported at weekly intervals.
The CEMRF is a viral strain of the CEMSS cell line.

[2] = tested on: U937RF, a protease resistant strain; assay: Long term in vitro study, U937RF; assay type: cell-based, HIV
Procedure: as §1, §2, §3, §4
The results with U937RF cells were reported at weekly intervals.

[3] = tested on: U937JE225R, a protease resistant strain; assay: Long term in vitro study, U937JE225R; assay type: cell-based, HIV
Procedure: as §1, §2, §3, §4
The results with U937JE225R cells was reported at weekly intervals.

HIV-2 virus, CEMROD = assay: In vitro screening test against HIV-2, reverse transcriptase activity; assay type: cell-based; set-up: Reverse Transcriptase Activity, sample / Reverse Transcriptase Activity, average: unit not given here
Description: The results of one test are shown below

Cryptococcus neoformans = assay: Anti-fungal activity, MFC (NCCLS M-27A based); assay type: cell-based
Procedure: It was active against Cryptococcus neoformans and Curvularia lunata. The cidal activity for the C. neoformans is high enough that it is clear […] against this yeast. This test was conducted using a method based upon NCCLS reference method M-27A published in 1997. Solvent, medium and growth controls were set-up with the tests. Once these were read to validate the test performance, the QC fungi were read to insure they had expected results. These steps validated the test system. DMSO was used as a drug-chemical solvent. […] The 90% cut-off is necessary for azoles, which are static and not cidal. The […] or cidal level, was determined by sub-culturing a sample from each tube showing no growth.

NC(=S)Nc1nsc(-c2ccccc2)n1
Antiviral Index (AI), TC50/IC50 (BVDV; first test): greater than 4000 | Antiviral Index (AI), TC50/IC50 (BVDV; second screening test): 1000.4 | % virus control ([1]; 0.64 μM): 79.1% | DNA Copy Number (per 3 μl), average ([1]; 0.64 μM): 12198.1 per 3 μl | DNA Copy Number (per 3 μl), sample ([1]; 0.64 μM): 1200.5 per 3 μl and 1258.4 per 3 μl and 1198.4 per 3 μl | % virus control ([1]; 2 μM): 71.2% | DNA Copy Number (per 3 μl), average ([1]; 2 μM): 1096.9 per 3 μl | DNA Copy Number (per 3 μl), sample ([1]; 2 μM): 1100.2 per 3 μl and 1000.7 per 3 μl and 1189.7 per 3 μl | % virus control ([1]; 6.4 μM): 67.0% | DNA Copy Number (per 3 μl), average ([1]; 6.4 μM): 1032.6 per 3 μl | DNA Copy Number (per 3 μl), sample ([1]; 6.4 μM): 1003.5 per 3 μl and 1084.5 per 3 μl and 1009.7 per 3 μl | % virus control ([1]; 20 μM): 55.8% | DNA Copy Number (per 3 μl), average ([1]; 20 μM): 860.2 per 3 μl | DNA Copy Number (per 3 μl), sample ([1]; 20 μM): 747.8 per 3 μl and 841.6 per 3 μl and 991.2 per 3 μl | % virus control ([1]; 64 μM): 48.9% | DNA Copy Number (per 3 μl), average ([1]; 64 μM): 753.0 per 3 μl | % virus control ([1]; 200 μM): 26.6% | DNA Copy Number (per 3 μl), average ([1]; 200 μM): 410.7 per 3 μl | TI ([1]; HHV8, BCBL-1 cells): TI = 1.8 | IC50 ([1]; Human gammaherpesvirus 8, BCBL1, HHV8 DNA copy number, BCBL-1 cells): 56.8 µM | virus production (supernatant reverse transcriptase activity) (HIV-1 cell line, CEMRF; day 4): 5423 | virus production (supernatant reverse transcriptase activity) (HIV-1 cell line, CEMRF; day 11): 2249 | virus production (supernatant reverse transcriptase activity) (HIV-1 cell line, CEMRF; day 18): 2951 | virus production (supernatant reverse transcriptase activity) (HIV-1 cell line, CEMRF; day 25): 3606 | virus production (supernatant reverse transcriptase activity) ([2]; 7 μg/ml, day 4): 1627 | virus production (supernatant reverse transcriptase activity) ([2]; 7 μg/ml, day 11): 1526 | virus production (supernatant reverse transcriptase activity) ([2]; 7 μg/ml, day 18): 4086 | virus production (supernatant reverse transcriptase activity) ([2]; 7 μg/ml, day 25): 5303 | virus production (supernatant reverse transcriptase activity) ([2]; 7 μg/ml, day 32): 4827 | virus production (supernatant reverse transcriptase activity) ([2]; 7 μg/ml, day 39): 6008 | virus production (supernatant reverse transcriptase activity) ([2]; 7 μg/ml, day 46): 3586 | virus production (supernatant reverse transcriptase activity) ([2]; 7 μg/ml, day 53): 5726 | virus production (supernatant reverse transcriptase activity) ([2]; 15 μg/ml, day 4): 1575 | virus production (supernatant reverse transcriptase activity) ([2]; 15 μg/ml, day 11): 1482 | virus production (supernatant reverse transcriptase activity) ([2]; 15 μg/ml, day 18): 3772 | virus production (supernatant reverse transcriptase activity) ([2]; 15 μg/ml, day 25): 2654 | virus production (supernatant reverse transcriptase activity) ([2]; 15 μg/ml, day 32): 1594 | virus production (supernatant reverse transcriptase activity) ([2]; 15 μg/ml, day 39): 3538 | virus production (supernatant reverse transcriptase activity) ([2]; 15 μg/ml, day 46): 2426 | virus production (supernatant reverse transcriptase activity) ([2]; 15 μg/ml, day 53): 3976 | virus production (supernatant reverse transcriptase activity) ([2]; 30 μg/ml, day 4): 1751 | virus production (supernatant reverse transcriptase activity) ([2]; 30 μg/ml, day 11): 1237 | virus production (supernatant reverse transcriptase activity) ([2]; 30 μg/ml, day 18): 2892 | virus production (supernatant reverse transcriptase activity) ([2]; 30 μg/ml, day 25): 735 | virus production (supernatant reverse transcriptase activity) ([2]; 30 μg/ml, day 32): 1035 | virus production (supernatant reverse transcriptase activity) ([2]; 30 μg/ml, day 39): 1265 | virus production (supernatant reverse transcriptase activity) ([2]; 30 μg/ml, day 46): 1358 | virus production (supernatant reverse transcriptase activity) ([2]; 30 μg/ml, day 53): 2333 | virus production (supernatant reverse transcriptase activity) ([3]; 7 μg/ml, day 4): 12165 | virus production (supernatant reverse transcriptase activity) ([3]; 7 μg/ml, day 11): 9465 | virus production (supernatant reverse transcriptase activity) ([3]; 7 μg/ml, day 18): 10341 | virus production (supernatant reverse transcriptase activity) ([3]; 7 μg/ml, day 25): 9079 | virus production (supernatant reverse transcriptase activity) ([3]; 7 μg/ml, day 32): 6797 | virus production (supernatant reverse transcriptase activity) ([3]; 7 μg/ml, day 39): 9792 | virus production (supernatant reverse transcriptase activity) ([3]; 7 μg/ml, day 46): 9915 | virus production (supernatant reverse transcriptase activity) ([3]; 7 μg/ml, day 53): 1094 | virus production (supernatant reverse transcriptase activity) ([3]; 15 μg/ml, day 4): 11151 | virus production (supernatant reverse transcriptase activity) ([3]; 15 μg/ml, day 11): 9935 | virus production (supernatant reverse transcriptase activity) ([3]; 15 μg/ml, day 18): 9738 | virus production (supernatant reverse transcriptase activity) ([3]; 15 μg/ml, day 25): 7104 | virus production (supernatant reverse transcriptase activity) ([3]; 15 μg/ml, day 32): 6426 | virus production (supernatant reverse transcriptase activity) ([3]; 15 μg/ml, day 39): 10618 | virus production (supernatant reverse transcriptase activity) ([3]; 15 μg/ml, day 46): 10471 | virus production (supernatant reverse transcriptase activity) ([3]; 15 μg/ml, day 53): 9756 | virus production (supernatant reverse transcriptase activity) ([3]; 30 μg/ml, day 4): 12033 | virus production (supernatant reverse transcriptase activity) ([3]; 30 μg/ml, day 11): 9859 | virus production (supernatant reverse transcriptase activity) ([3]; 30 μg/ml, day 18): 11874 | virus production (supernatant reverse transcriptase activity) ([3]; 30 μg/ml, day 25): 5281 | virus production (supernatant reverse transcriptase activity) ([3]; 30 μg/ml, day 32): 4154 | virus production (supernatant reverse transcriptase activity) ([3]; 30 μg/ml, day 39): 5379 | virus production (supernatant reverse transcriptase activity) ([3]; 30 μg/ml, day 46): 5239 | virus production (supernatant reverse transcriptase activity) ([3]; 30 μg/ml, day 53): 4423 | % virus control (HIV-2 virus, CEMROD; 0.32 μg/ml): 113.2% | Reverse Transcriptase Activity, average (HIV-2 virus, CEMROD; 0.32 μg/ml): 5451 | Reverse Transcriptase Activity, sample (HIV-2 virus, CEMROD; 0.32 μg/ml): 4664 and 6972 and 4717 | % virus control (HIV-2 virus, CEMROD; 1 μg/ml): 95.5% | Reverse Transcriptase Activity, average (HIV-2 virus, CEMROD; 1 μg/ml): 4601 | Reverse Transcriptase Activity, sample (HIV-2 virus, CEMROD; 1 μg/ml): 4005 and 4407 and 5392 | % virus control (HIV-2 virus, CEMROD; 1.0 μg/ml): 66.6% | Reverse Transcriptase Activity, average (HIV-2 virus, CEMROD; 1.0 μg/ml): 3208 | Reverse Transcriptase Activity, sample (HIV-2 virus, CEMROD; 1.0 μg/ml): 3001 and 3077 and 3547 | % virus control (HIV-2 virus, CEMROD; 3.2 μg/ml): 74.9% | Reverse Transcriptase Activity, average (HIV-2 virus, CEMROD; 3.2 μg/ml): 3606 | Reverse Transcriptase Activity, sample (HIV-2 virus, CEMROD; 3.2 μg/ml): 4166 and 3318 and 3334 | % virus control (HIV-2 virus, CEMROD; 32 μg/ml): 36.4% | Reverse Transcriptase Activity, average (HIV-2 virus, CEMROD; 32 μg/ml): 1753 | Reverse Transcriptase Activity, sample (HIV-2 virus, CEMROD; 32 μg/ml): 1832 and 1550 and 1876 | % virus control (HIV-2 virus, CEMROD; 100 μg/ml): 1.2% | Reverse Transcriptase Activity, average (HIV-2 virus, CEMROD; 100 μg/ml): 57 | Reverse Transcriptase Activity, sample (HIV-2 virus, CEMROD; 100 μg/ml): 72 and 48 and 52 | anti-fungal activity in vitro (Cryptococcus neoformans): active | MFC (Cryptococcus neoformans; cidal level, read-out: MFC): 32 µg/mL (≈ 135 µM)
